Broadly, the IC50 is the concentration needed to halve the response being measured. A low value points to inhibition by little substance.

The target in this test is T1, Glucocorticoid Receptor (GR) (Homo sapiens, UniProt P04150).
T1 construct: purchased Invitrogen P2893
T1 sequence (P04150 1-777): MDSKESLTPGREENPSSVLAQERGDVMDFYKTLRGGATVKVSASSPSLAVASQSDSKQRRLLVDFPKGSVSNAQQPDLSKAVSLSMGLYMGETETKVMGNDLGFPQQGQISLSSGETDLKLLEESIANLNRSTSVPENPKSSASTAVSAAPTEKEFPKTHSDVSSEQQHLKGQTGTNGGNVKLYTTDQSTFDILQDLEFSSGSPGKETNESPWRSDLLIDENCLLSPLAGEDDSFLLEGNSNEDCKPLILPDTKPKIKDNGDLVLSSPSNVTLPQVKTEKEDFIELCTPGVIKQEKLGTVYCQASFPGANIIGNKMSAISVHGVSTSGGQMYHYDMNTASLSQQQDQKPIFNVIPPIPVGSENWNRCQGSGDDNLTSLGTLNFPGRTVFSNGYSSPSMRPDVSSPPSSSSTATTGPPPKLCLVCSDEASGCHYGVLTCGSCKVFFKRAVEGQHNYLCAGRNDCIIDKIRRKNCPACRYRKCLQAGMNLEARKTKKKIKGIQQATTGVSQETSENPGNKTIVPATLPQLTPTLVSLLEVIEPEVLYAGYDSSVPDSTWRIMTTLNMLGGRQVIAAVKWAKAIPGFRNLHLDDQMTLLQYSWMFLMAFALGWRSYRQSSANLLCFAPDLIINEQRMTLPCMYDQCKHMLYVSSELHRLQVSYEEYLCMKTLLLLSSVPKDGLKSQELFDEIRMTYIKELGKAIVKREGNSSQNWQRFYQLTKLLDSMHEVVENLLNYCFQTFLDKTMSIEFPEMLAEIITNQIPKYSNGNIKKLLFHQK
Briefly: GR Florescence Polarization Assay (PolarScreen Glucocorticoid Receptor Competitor Assay, Red). The settings on record: Fluorescense polarization binding ranges; competition with fluorescent glucocorticoid, incubated overnight at 4° C. The procedure: GR Florescence Polarization Assay Florescence polarization assays were carried out using the PolarScreen™ Glucocorticoid Receptor Competitor Assay, Red from Invitrogen (P2893). The assay buffer was prepared according to the manufacturer's protocol and used to dilute the fluorescent glucocorticoid and GR. Compounds were prepared and serial diluted 1:4 in DMSO. Compound, fluorescent glucocorticoid and GR were added in a final volume of 20 μL and incubated overnight at 4° C. Fluorescent polarization was measured on the Perkinelmer Envision®.
Compound `CCC[C@@]1(O)CC[C@@]2(CC)c3ccc(C(=O)Nc4cccnc4N)cc3CCC[C@H]2C1` (racemic) [Example 149, (7aS,9R,11aR)-11a-Ethyl-9-hydroxy-9-propyl-6,7,7a,8,9,10,11,11a-octahydro-5H-dibenzo[a,c]cycloheptene-3-carboxylic acid (2-amino-pyridin-3-yl)-amide; compound with (7aR,9S,11aS)-11a-ethyl-9-hydroxy-9-propyl-6,7,7a,8,9,10,11,11a-octahydro-5H-dibenzo[a,c]cycloheptene-3-carboxylic acid(2-amino-pyridin-3-yl)-amide] gave an IC50 of under 100 nM. The figure for `CC[C@]1(O)CC[C@]2(Cc3ccccc3)c3ccc(C(=O)Nc4cccnc4C)cc3CCC[C@@H]2C1` (single isomer, unassigned) [Example 15] is 100 to 1000 nM; for `Cc1ncccc1NC(=O)c1ccc2c(c1)CCC[C@@H]1C[C@](C)(O)CC[C@@]21Cc1ccccc1.Cc1ncccc1NC(=O)c1ccc2c(c1)CCC[C@H]1C[C@@](C)(O)CC[C@]21Cc1ccccc1` [Example 9, (7aR,9R,11aS)-11a-Benzyl-9-hydroxy-9-methyl-6,7,7a,8,9,10,11,11a-octahydro-5H-dibenzo[a,c]cycloheptene-3-carboxylic acid (2-methyl-pyridin-3-yl)-amide; compound with (7aS,9S,11aR)-11a-benzyl-9-hydroxy-9-methyl-6,7,7a,8,9,10,11,11a-octahydro-5H-dibenzo[a,c]cycloheptene-3-carboxylic acid (2-methyl-pyridin-3-yl)-amide] it is under 100 nM; for `CC[C@@]12CC[C@](O)(CC(C)C)C[C@@H]1CCCc1cc(C(=O)Nc3cccnc3C)ccc12` [Example 49] it is under 100 nM. `CC[C@@]1(O)CC[C@@]2(Cc3ccccc3)c3ccc(C(=O)NC4=NC(=O)CN4C)cc3CCC[C@H]2C1` [Example 85] came in with an IC50 of under 100 nM. Take `CC[C@@]1(O)CC[C@]2(Cc3ccccc3)c3nn(C)cc3CCC[C@@H]2C1.CC[C@]1(O)CC[C@@]2(Cc3ccccc3)c3nn(C)cc3CCC[C@H]2C1` [Example 41, (6aS,8S,10aS)-10a-benzyl-8-ethyl-2-methyl-2,4,5,6,6a,7,8,9,10,10a-decahydro-1,2-diaza-benzo[e]azulen-8-ol; compound with (6aR,8R,10aR)-10a-benzyl-8-ethyl-2-methyl-2,4,5,6,6a,7,8,9,10,10a-decahydro-1,2-diaza-benzo[e]azulen-8-ol]: the IC50 was over 10000 nM. `CCC[C@]1(O)CC[C@]2(CC)c3ccc(C(=O)Nc4cccnc4C)cc3C(=O)CC[C@@H]2C1` (single isomer, unassigned) [Example 62] showed an IC50 of under 100 nM. Under `CCC[C@@]1(O)CC[C@@]2(CC)c3ccc(C(=O)Nc4ccccc4Cl)cc3CCC[C@H]2C1` [Example 151, (7aS,9R,11aR)-11a-Ethyl-9-hydroxy-9-propyl-6,7,7a,8,9,10,11,11a-octahydro-5H-dibenzo[a,c]cycloheptene-3-carboxylic acid (2-chloro-phenyl)-amide] stands under 100 nM; under `CCC[C@@]1(O)CC[C@@]2(CC)c3ccc(-c4nc5ccccc5[nH]4)cc3CCC[C@H]2C1` (single isomer, unassigned) [Example 147], 1000 to 10000 nM. Take `CC[C@@]1(O)CC[C@]2(Cc3ccccc3)c3ccc(C(=O)Nc4cccnc4C)cc3CCC[C@@H]2C1.CC[C@]1(O)CC[C@@]2(Cc3ccccc3)c3ccc(C(=O)Nc4cccnc4C)cc3CCC[C@H]2C1` [Example 13, (7aS,9S,11aS)-11a-benzyl-9-ethyl-9-hydroxy-6,7,7a,8,9,10,11,11a-octahydro-5H-dibenzo[a,c]cycloheptene-3-carboxylic acid (2-methyl-pyridin-3-yl)-amide; compound with (7aR,9R,11aR)-11a-benzyl-9-ethyl-9-hydroxy-6,7,7a,8,9,10,11,11a-octahydro-5H-dibenzo[a,c]cycloheptene-3-carboxylic acid (2-methyl-pyridin-3-yl)-amide]: the IC50 fell in the range of 100 to 1000 nM. Take `CCC[C@@]1(O)CC[C@@]2(CC3CC3)c3ccc(C(=O)Nc4cccnc4C)cc3CCC[C@H]2C1` (racemic) [Example 150, (7aR,9R,11aS)-11a-Cyclopropylmethyl-9-hydroxy-9-propyl-6,7,7a,8,9,10,11,11a-octahydro-5H-dibenzo[a,c]cycloheptene-3-carboxylic acid (2-methyl-pyridin-3-yl)-amide; compound with (7aS,9S,11aR)-11a-cyclopropylmethyl-9-hydroxy-9-propyl-6,7,7a,8,9,10,11,11a-octahydro-5H-dibenzo[a,c]cycloheptene-3-carboxylic acid (2-methyl-pyridin-3-yl)-amide]: the IC50 was under 100 nM. In turn, `CCC[C@]1(O)CC[C@]2(CC)c3ccc(C(=O)Nc4cccnc4C)cc3CCC[C@@H]2C1` (single isomer, unassigned) [Example 44] returned an IC50 of 100 to 1000 nM.

Regarding `CC[C@@]1(O)CC[C@@]2(Cc3ccccc3)c3ccc(C(=O)Nc4ccc(C)nc4C)cc3CCC[C@H]2C1` [Example 72], the IC50 is under 100 nM. As to `CC[C@@]1(O)CC[C@@]2(Cc3ccccc3)c3ccc(C(=O)Nc4cnc(C)nc4C)cc3CCC[C@H]2C1` [Example 68, (7aS,9R,11aS)-11a-Benzyl-9-ethyl-9-hydroxy-6,7,7a,8,9,10,11,11a-octahydro-5H-dibenzo[a,c]cycloheptene-3-carboxylic acid (2,4-dimethyl-pyrimidin-5-yl)-amide], the IC50 was under 100 nM. The figure for `Cc1ncccc1NC(=O)c1ccc2c(c1)CCC[C@H]1C[C@@](O)(c3ccccc3)[C@H](O)C[C@@]21Cc1ccccc1` [Example 43, (7aS,9R,10R,11aR)-11a-Benzyl-9,10-dihydroxy-9-phenyl-6,7,7a,8,9,10,11,11a-octahydro-5H-dibenzo[a,c]cycloheptene-3-carboxylic acid (2-methyl-pyridin-3-yl)-amide; compound with (7aR,9S,10S,11aS)-11a-benzyl-9,10-dihydroxy-9-phenyl-6,7,7a,8,9,10,11,11a-octahydro-5H-dibenzo[a,c]cycloheptene-3-carboxylic acid (2-methyl-pyridin-3-yl)-amide] is 100 to 1000 nM; for `Cc1ncccc1NC(=O)c1ccc2c(c1)NC(=O)C[C@@H]1C[C@@](O)(C(F)(F)F)CC[C@@]21Cc1ccccc1` [Example 20, (7aS,9R,11aS)-11a-Benzyl-9-hydroxy-N-(2-methylpyridin-3-yl)-6-oxo-9-(trifluoromethyl)-6,7,7a,8,9,10,11,11a-octahydro-5H-dibenzo[b,d]azepine-3-carboxamide] it is 100 to 1000 nM. For the compound `CC[C@@]1(O)CC[C@@]2(Cc3ccccc3)c3ccc(C(=O)Nc4cccc(N)c4)cc3CCC[C@H]2C1` [Example 142, (7aS,9R,11aS)-11a-Benzyl-9-ethyl-9-hydroxy-6,7,7a,8,9,10,11,11a-octahydro-5H-dibenzo[a,c]cycloheptene-3-carboxylic acid (3-amino-phenyl)-amide], the IC50 is under 100 nM. Compound `CCC[C@@]1(O)CC[C@@]2(CC)c3ccc(C(=O)Nc4cccnc4C)cc3OCC[C@H]2C1` (single isomer, unassigned) [Example 121] registered an IC50 of under 100 nM. Under `COc1ccc2c(c1)CCCC1=CC(=O)CCC12Cc1ccccc1` (stereo not drawn) [Example 1, 11b-Benzyl-9-methoxy-1,2,5,6,7,11b-hexahydro-dibenzo[a,c]cyclohepten-3-one] stands 100 to 1000 nM; under `CC[C@@]1(O)CC[C@@]2(Cc3ccccc3)c3nn(C)cc3CCC[C@H]2C1.CC[C@]1(O)CC[C@]2(Cc3ccccc3)c3nn(C)cc3CCC[C@@H]2C1` [Example 40, (6aS,8R,10aS)-10a-Benzyl-8-ethyl-2-methyl-2,4,5,6,6a,7,8,9,10,10a-decahydro-1,2-diaza-benzo[e]azulen-8-ol; compound with (6aR,8S,10aR)-10a-benzyl-8-ethyl-2-methyl-2,4,5,6,6a,7,8,9,10,10a-decahydro-1,2-diaza-benzo[e]azulen-8-ol], over 10000 nM; under `CCOC[C@@]1(O)CC[C@@]2(Cc3ccccc3)c3ccc(C(=O)Nc4cccnc4C)cc3CCC[C@H]2C1` (racemic) [Example 33, (7aS,9R,11aS)-11a-Benzyl-9-ethoxymethyl-9-hydroxy-6,7,7a,8,9,10,11,11a-octahydro-5H-dibenzo[a,c]cycloheptene-3-carboxylic acid (2-methyl-pyridin-3-yl)-amide; compound with (7aR,9S,11aR)-11a-benzyl-9-ethoxymethyl-9-hydroxy-6,7,7a,8,9,10,11,11a-octahydro-5H-dibenzo[a,c]cycloheptene-3-carboxylic acid (2-methyl-pyridin-3-yl)-amide], under 100 nM.

The values above are taken from US20120238549A1, “Nuclear Hormone Receptor Modulators” (ABBOTT LABORATORIES, priority 2011, published 2012).
